Experimental findings from US20260078130A1, “NAMPT MODULATORS, PREPARATIONS, AND USES THEREOF” (SIRONAX LTD., priority 2022, published 2026) are described below.

Like-named read-outs stand apart in the source and are kept apart here.

Assay [1] addresses T1, human enzyme NAMPT (full length) (Homo sapiens, UniProt P43490).
T1 construct: human enzyme NAMPT (full length)
Put plainly: NMN fluorescence biochemical assay (stimulation of NMN synthesis by NAMPT). To be noted: for EC50: concentration giving half-maximal activation, read-out: Enzymatic EC50; for Enzymatic Emax: fold change of maximal activation compared to DMSO. In outline:
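Full-length human NAMPT (100 nM) was preincubated 15 min at 37 °C with compound in 50 mM Tris-HCl pH 7.5, 10 mM MgCl2, 2 mM DTT, then reacted 1 h at 37 °C with 50 μM NAM, 100 μM PRPP, 4 mM ATP (stated solution concentrations). NMN was derivatised with acetophenone/KOH then formic acid and read at Ex/Em 382/445 nm; EC50 and Emax (fold over DMSO) reported.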

The subject of assay [2] is endogenous NAMPT in U2OS cells. Put plainly: Cellular NAD+ modulation assay (NAD/NADH-Glo, U2OS cells). The assay is classed as cell-based. The settings on record: Homo sapiens; for maximal fold induction: read-out: Cellular Emax. The gist of the method:
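Endogenous NAMPT stimulation in U2OS cells treated with compound dilution series for 24 h at 37 °C. Cells lysed with DTAB base, acid-treated 15 min at 60 °C, neutralized, NAD+ read by NAD/NADH-Glo luminescence after 40 min at room temperature. EC50 and Emax (fold over DMSO) derived.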

Setting [3] is: NMN fluorescence assay, purified human NAMPT 100 nM.
Setting [4] is: 24 hours incubation, cellular NAD+.
Setting [5] is: NMN synthesis by purified human NAMPT (100 nM).
Setting [6] is: 24 hours incubation with compound.

T1 sequence (P43490 whole entry): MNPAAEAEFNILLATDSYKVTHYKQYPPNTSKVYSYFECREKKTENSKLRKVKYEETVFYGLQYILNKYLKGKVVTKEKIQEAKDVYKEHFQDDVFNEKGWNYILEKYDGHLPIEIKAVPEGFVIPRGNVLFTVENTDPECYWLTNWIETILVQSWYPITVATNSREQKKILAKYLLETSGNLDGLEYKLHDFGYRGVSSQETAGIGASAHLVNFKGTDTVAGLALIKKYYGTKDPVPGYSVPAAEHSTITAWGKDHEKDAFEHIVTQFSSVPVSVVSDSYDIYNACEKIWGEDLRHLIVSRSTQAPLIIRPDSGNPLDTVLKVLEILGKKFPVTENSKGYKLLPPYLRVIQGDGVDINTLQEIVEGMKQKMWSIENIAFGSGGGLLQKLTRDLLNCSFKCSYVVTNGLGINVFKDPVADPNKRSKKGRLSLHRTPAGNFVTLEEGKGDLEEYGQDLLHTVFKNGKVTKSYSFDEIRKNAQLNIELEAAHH

Regarding `COc1ccc(CN2C(=O)c3ccccc3C2Cc2c(Cl)cnn2C)cn1` (stereo not shown) [Compound 574, 3-((4-chloro-1-methyl-1H-pyrazol-5-yl)methyl)-2-((6-methoxypyridin-3-yl)methyl)isoindolin-1-one], the EC50 in assay [1] (setting [3]) is 0.5 to 5 µM. For the same compound, the “Enzymatic Emax” value in assay [1] is on record as “B (3≥B>2)”. Also, in assay [2] (setting [4]), the 50% effective concentration (EC50) was 0.5 to 5 µM and the maximal fold induction is more than 1.5.
For `Cc1ccn(C)c(=O)c1CC1c2ccccc2C(=O)N1CC1CC2(CNC(=O)O2)C1` (stereo not shown) [Compound 481, 2-((1-((1,4-dimethyl-2-oxo-1,2-dihydropyridin-3-yl)methyl)-3-oxoisoindolin-2-yl)methyl)-5-oxa-7-azaspiro[3.4]octan-6-one], the EC50 in assay [1] (setting [3]) was 0.5 to 5 µM. Moreover, the “Enzymatic Emax” value in assay [1] was “B (3≥B>2)”. Moreover, in assay [2] (setting [4]), the EC50 fell in the range of 0.5 to 5 µM and the maximal fold induction was more than 1.5.
`CC1c2cc(-c3cnco3)ccc2C(=O)N1Cc1ccc2[nH]c(=O)oc2c1` (single isomer, unassigned) [Compound 162]: the EC50 in assay [1] (setting [5]) fell in the range of 0.5 to 5 µM. Also, the “Enzymatic Emax” value in assay [1] is “B (3≥B>2)”. In assay [2] (setting [6]), the EC50 was in the range of 5 to 50 µM and the maximal fold induction was more than 1.5.
As for `CNCc1ccc2c(c1)C(=O)N(Cc1ccc3[nH]nnc3c1)C2Cc1c(Cl)cnn1C` (stereo not shown) [Compound 422, 2-((1H-benzo[d][1,2,3]triazol-5-yl)methyl)-3-((4-chloro-1-methyl-1H-pyrazol-5-yl)methyl)-6-((methylamino)methyl)isoindolin-1-one], the EC50 in assay [1] (setting [3]) is not below 5 µM. The “Enzymatic Emax” value in assay [1] was “B (3≥B>2)”. In addition, in assay [2] (setting [4]), the EC50 lay within 5 to 50 µM and the maximal fold induction lay within 1.2 to 1.5.
`Cc1ccnc(CC2c3ccccc3C(=O)N2Cc2ccc3[nH]c(=O)oc3c2)c1` (stereo not shown) [Compound 156, 6-((1-((4-methylpyridin-2-yl)methyl)-3-oxoisoindolin-2-yl)methyl)benzo[d]oxazol-2(3H)-one]: the EC50 in assay [1] (setting [5]) was not below 5 µM; in assay [2] (setting [6]) it was 0.5 to 5 µM. Further, the “Enzymatic Emax” value in assay [1] was “A (A>3)”. For the same compound, the maximal fold induction in assay [2] (setting [6]) was more than 1.5.
`COc1ccccc1CC1c2ccccc2C(=O)N1Cc1ccc2[nH]c(=O)oc2c1` (stereo not shown) [Compound 142, 6-((1-(2-methoxybenzyl)-3-oxoisoindolin-2-yl)methyl)benzo[d]oxazol-2(3H)-one]: the figures for the EC50 in assay [1] (setting [5]) and in assay [2] (setting [6]) were less than 0.5 µM and 0.5 to 5 µM, respectively. Further, the “Enzymatic Emax” value in assay [1] is “B (3≥B>2)”. The maximal fold induction in assay [2] (setting [6]) is more than 1.5.
Turning to `Cn1cnc(C#N)c1CC1c2ccccc2C(=O)N1Cc1ccc2[nH]nnc2c1` (stereo not shown) [Compound 315, 5-((2-((1H-benzo[d][1,2,3]triazol-5-yl)methyl)-3-oxoisoindolin-1-yl)methyl)-1-methyl-1H-imidazole-4-carbonitrile], the EC50 in assay [1] (setting [5]) lay in the range of 0.5 to 5 µM. For the same compound, the “Enzymatic Emax” value in assay [1] was “A (A>3)”. Also, in assay [2] (setting [6]), the concentration giving a half-maximal response (EC50) lay within 5 to 50 µM and the maximal fold induction fell in the range of 1.2 to 1.5.
Consider `Cc1ccnc(C#N)c1CC1c2ccc(F)cc2C(=O)N1CC1CC2(CNC(=O)O2)C1` (stereo not shown) [Compound 449, 3-((5-fluoro-3-oxo-2-((6-oxo-5-oxa-7-azaspiro[3.4]octan-2-yl)methyl)isoindolin-1-yl)methyl)-4-methylpicolinonitrile], for which the half-maximal effective concentration (EC50) in assay [1] (setting [3]) is 0.5 to 5 µM. For the same compound, the “Enzymatic Emax” value in assay [1] is recorded as “B (3≥B>2)”. For the same compound, in assay [2] (setting [4]), the EC50 is less than 0.5 µM and the maximal fold induction was more than 1.5.
Turning to `Cc1ccnc(C(C)(C)O)c1CC1c2ccccc2C(=O)N1Cc1ccc2[nH]nnc2c1` (stereo not shown) [Compound 375, 2-((1H-benzo[d][1,2,3]triazol-5-yl)methyl)-3-((2-(2-hydroxypropan-2-yl)-4-methylpyridin-3-yl)methyl)isoindolin-1-one], in assay [1] (setting [3]), the EC50 is less than 0.5 µM. The “Enzymatic Emax” value in assay [1] is “A (A>3)”. For the same compound, in assay [2] (setting [4]), the EC50 was less than 0.5 µM and the maximal fold induction is more than 1.5.
As for `C[C@H]1c2ccccc2C(=O)N1Cc1ccc2[nH]c(=O)oc2c1` [Compound 56, (S)-6-((1-methyl-3-oxoisoindolin-2-yl)methyl)benzo[d]oxazol-2(3H)-one], in assay [1] (setting [5]), the EC50 is not below 5 µM. For the same compound, the “Enzymatic Emax” value in assay [1] is given as “A (A>3)”. Moreover, in assay [2] (setting [6]), the EC50 was in the range of 0.5 to 5 µM and the maximal fold induction is more than 1.5.
Regarding `Cc1ccnc(C#N)c1CC1c2ccccc2C(=O)N1CC1CC2(CNC(=O)O2)C1` (stereo not shown) [Compound 308, 4-methyl-3-((3-oxo-2-((6-oxo-5-oxa-7-azaspiro[3.4]octan-2-yl)methyl)isoindolin-1-yl)methyl)picolinonitrile], the EC50 in assay [1] (setting [5]) is less than 0.5 µM. The “Enzymatic Emax” value in assay [1] was “B (3≥B>2)”. In assay [2] (setting [6]), the EC50 is less than 0.5 µM and the maximal fold induction is more than 1.5.
`Cn1ncc(Cl)c1CC1c2ccccc2C(=O)N1Cc1ccc2c(c1)ncn2C` (stereo not shown) [Compound 585, 3-((4-chloro-1-methyl-1H-pyrazol-5-yl)methyl)-2-((1-methyl-1H-benzo[d]imidazol-5-yl)methyl)isoindolin-1-one]: in assay [1] (setting [3]), the EC50 was 0.5 to 5 µM. For the same compound, the “Enzymatic Emax” value in assay [1] is “B (3≥B>2)”. Further, in assay [2] (setting [4]), the EC50 was 0.5 to 5 µM and the maximal fold induction is more than 1.5.
With `O=C1c2ccccc2C(Cc2ncccc2Br)N1CC1CCc2[nH]c(=O)oc2C1` (stereo not shown) [Compound 400, 6-((1-((3-bromopyridin-2-yl)methyl)-3-oxoisoindolin-2-yl)methyl)-4,5,6,7-tetrahydrobenzo[d]oxazol-2(3H)-one], the 50% effective concentration (EC50) in assay [1] (setting [3]) and in assay [2] (setting [4]) was 0.5 to 5 µM in each case. Also, the “Enzymatic Emax” value in assay [1] is “B (3≥B>2)”. For the same compound, the maximal fold induction in assay [2] (setting [4]) is more than 1.5.
Regarding `CC1c2cc(C3COC3)ccc2C(=O)N1Cc1ccc2[nH]c(=O)oc2c1` (single isomer, unassigned) [Compound 198], the EC50 in assay [1] (setting [5]) and in assay [2] (setting [6]) was 0.5 to 5 µM throughout. In assay [1], the “Enzymatic Emax” value is listed as “B (3≥B>2)”. Also, in assay [2] (setting [6]), the maximal fold induction was more than 1.5.
For `COc1ccc(CN2C(=O)c3cnccc3C2Cc2c(C)ccnc2C#N)cc1` (stereo not shown) [Compound 621, 3-((2-(4-methoxybenzyl)-3-oxo-2,3-dihydro-1H-pyrrolo[3,4-c]pyridin-1-yl)methyl)-4-methylpicolinonitrile], in assay [1] (setting [3]), the EC50 was not below 5 µM. Moreover, the “Enzymatic Emax” value in assay [1] is “B (3≥B>2)”. Besides, in assay [2] (setting [4]), the EC50 was 0.5 to 5 µM and the maximal fold induction was more than 1.5.
`Cc1nnn2cc(CN3C(=O)c4ccccc4C3Cc3c(Cl)cnn3C)ccc12` (stereo not shown) [Compound 627, 3-((4-chloro-1-methyl-1H-pyrazol-5-yl)methyl)-2-((3-methyl-[1,2,3]triazolo[1,5-a]pyridin-6-yl)methyl)isoindolin-1-one]: the results for the EC50 in assay [1] (setting [3]) and in assay [2] (setting [4]) were not below 5 µM and 0.5 to 5 µM, respectively. Moreover, the “Enzymatic Emax” value in assay [1] was “B (3≥B>2)”. In assay [2] (setting [4]), the maximal fold induction was in the range of 1.2 to 1.5.
With `COc1ccc(CN2C(=O)c3ccccc3C2Cc2c(Cl)cnn2C)nc1F` (stereo not shown) [Compound 543, 3-((4-chloro-1-methyl-1H-pyrazol-5-yl)methyl)-2-((6-fluoro-5-methoxypyridin-2-yl)methyl)isoindolin-1-one], the EC50 in assay [1] (setting [3]) fell in the range of 0.5 to 5 µM. The “Enzymatic Emax” value in assay [1] is “B (3≥B>2)”. For the same compound, in assay [2] (setting [4]), the EC50 was 0.5 to 5 µM and the maximal fold induction was more than 1.5.
For `O=C1c2ccccc2C(CCc2ccccc2)N1Cc1ccc2[nH]c(=O)oc2c1` (stereo not shown) [Compound 114, 6-((1-oxo-3-phenethylisoindolin-2-yl)methyl)benzo[d]oxazol-2(3H)-one], the EC50 in assay [1] (setting [5]) fell in the range of 0.5 to 5 µM. The “Enzymatic Emax” value in assay [1] is “B (3≥B>2)”. For the same compound, in assay [2] (setting [6]), the EC50 was in the range of 5 to 50 µM and the maximal fold induction was more than 1.5.
Consider `Cn1ncc(Cl)c1CC1c2ccccc2C(=O)N1Cc1c[nH]c(=O)s1` (stereo not shown) [Compound 592, 5-((1-((4-chloro-1-methyl-1H-pyrazol-5-yl)methyl)-3-oxoisoindolin-2-yl)methyl)thiazol-2(3H)-one], for which the EC50 in assay [1] (setting [3]) and in assay [2] (setting [4]) was less than 0.5 µM in each case. Besides, the “Enzymatic Emax” value in assay [1] is “A (A>3)”. Moreover, the maximal fold induction in assay [2] (setting [4]) was more than 1.5.
Regarding `Cn1ncc(Cl)c1CC1c2cc(C3CN(C(=O)OC(C)(C)C)C3)ccc2C(=O)N1CC1CC2(CNC(=O)O2)C1` (stereo not shown) [Compound 514, tert-butyl 3-(3-((4-chloro-1-methyl-1H-pyrazol-5-yl)methyl)-1-oxo-2-((6-oxo-5-oxa-7-azaspiro[3.4]octan-2-yl)methyl)isoindolin-5-yl)azetidine-1-carboxylate], the EC50 in assay [1] (setting [3]) and in assay [2] (setting [4]) was 0.5 to 5 µM in each case. Also, the “Enzymatic Emax” value in assay [1] is “A (A>3)”. Besides, the maximal fold induction in assay [2] (setting [4]) is more than 1.5.
In the case of `O=C1NCC2(CC(CN3C(=O)c4ccccc4C3Cc3c(Cl)nc4sccn34)C2)O1` (stereo not shown) [Compound 469, 2-((1-((6-chloroimidazo[2,1-b]thiazol-5-yl)methyl)-3-oxoisoindolin-2-yl)methyl)-5-oxa-7-azaspiro[3.4]octan-6-one], the 50% effective concentration (EC50) in assay [1] (setting [3]) lay in the range of 0.5 to 5 µM. Moreover, in assay [1], the “Enzymatic Emax” value was “B (3≥B>2)”. For the same compound, in assay [2] (setting [4]), the EC50 was less than 0.5 µM and the maximal fold induction is more than 1.5.
On to `C[C@@H]1c2ccccc2C(=O)N1Cc1ccc2[nH]c(=O)oc2c1` [Compound 55, (R)-6-((1-methyl-3-oxoisoindolin-2-yl)methyl)benzo[d]oxazol-2(3H)-one], for which the EC50 in assay [1] (setting [5]) was not below 5 µM; in assay [2] (setting [6]) it was 5 to 50 µM. In addition, the “Enzymatic Emax” value in assay [1] is listed as “B (3≥B>2)”. In addition, the maximal fold induction in assay [2] (setting [6]) lay in the range of 1.2 to 1.5.
